From PubChem BioAssay (NCI)
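Tested at 5 concentrations; 48 h exposure; 96-well plates; endpoints linearly interpolated, else capped at highest concentration. TGI is the concentration that stops growth completely.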

Test system: DU-145 prostate
Assay: DTP human tumour cell line panel, 48 h

SMILES | TGI [µM]
C#CCOCC12C=CC(O1)C1C(=O)OCC12 (stereo unspecified) | > 100
Cc1nc(-c2ccc(N=Cc3ccc(N(CCOS(C)(=O)=O)CCOS(C)(=O)=O)cc3C)cc2)cs1 | > 100
Cc1ccc2c(=O)cc(-c3ccc(-c4ccccc4)s3)[nH]c2n1 | > 100
OC1(c2ccccc2)CSC2=Nc3ccccc3C3CCN1N23 (stereo unspecified) | 29.7

Test system: HOP-62 NSCLC
Assay: DTP human tumour cell line panel, 48 h

SMILES | TGI [µM]
Nc1nc(Cl)c(N)c(NCC2(CO)CC(CCCc3ccccc3)C2)n1 (stereo unspecified) | > 100
COc1nc(N)c(N=CC(OC(C)=O)C(OC(C)=O)C(COC(C)=O)OC(C)=O)c(=O)n1C (stereo unspecified) | > 100
C#CCOCC12C=CC(O1)C1C(=O)OCC12 (stereo unspecified) | > 100
Cc1nc(-c2ccc(N=Cc3ccc(N(CCOS(C)(=O)=O)CCOS(C)(=O)=O)cc3C)cc2)cs1 | > 100
Cc1ccc2c(=O)cc(-c3ccc(-c4ccccc4)s3)[nH]c2n1 | > 76.8
OC1(c2ccccc2)CSC2=Nc3ccccc3C3CCN1N23 (stereo unspecified) | 50

Test system: SW-620 colon
Assay: DTP human tumour cell line panel, 48 h

SMILES | TGI [µM]
Nc1nc(Cl)c(N)c(NCC2(CO)CC(CCCc3ccccc3)C2)n1 (stereo unspecified) | > 100
COc1nc(N)c(N=CC(OC(C)=O)C(OC(C)=O)C(COC(C)=O)OC(C)=O)c(=O)n1C (stereo unspecified) | > 100
C#CCOCC12C=CC(O1)C1C(=O)OCC12 (stereo unspecified) | > 100
Cc1nc(-c2ccc(N=Cc3ccc(N(CCOS(C)(=O)=O)CCOS(C)(=O)=O)cc3C)cc2)cs1 | > 100
Cc1ccc2c(=O)cc(-c3ccc(-c4ccccc4)s3)[nH]c2n1 | > 100
OC1(c2ccccc2)CSC2=Nc3ccccc3C3CCN1N23 (stereo unspecified) | 47.1

Test system: BT-549 breast
Assay: DTP human tumour cell line panel, 48 h

SMILES | TGI [µM]
Nc1nc(Cl)c(N)c(NCC2(CO)CC(CCCc3ccccc3)C2)n1 (stereo unspecified) | > 81.8
COc1nc(N)c(N=CC(OC(C)=O)C(OC(C)=O)C(COC(C)=O)OC(C)=O)c(=O)n1C (stereo unspecified) | > 100
C#CCOCC12C=CC(O1)C1C(=O)OCC12 (stereo unspecified) | > 100
Cc1nc(-c2ccc(N=Cc3ccc(N(CCOS(C)(=O)=O)CCOS(C)(=O)=O)cc3C)cc2)cs1 | > 100
Cc1ccc2c(=O)cc(-c3ccc(-c4ccccc4)s3)[nH]c2n1 | > 100
OC1(c2ccccc2)CSC2=Nc3ccccc3C3CCN1N23 (stereo unspecified) | 57.4

Test system: RXF 393 renal
Assay: DTP human tumour cell line panel, 48 h

SMILES | TGI [µM]
COc1nc(N)c(N=CC(OC(C)=O)C(OC(C)=O)C(COC(C)=O)OC(C)=O)c(=O)n1C (stereo unspecified) | > 100
C#CCOCC12C=CC(O1)C1C(=O)OCC12 (stereo unspecified) | > 100
Cc1nc(-c2ccc(N=Cc3ccc(N(CCOS(C)(=O)=O)CCOS(C)(=O)=O)cc3C)cc2)cs1 | 53.9
Cc1ccc2c(=O)cc(-c3ccc(-c4ccccc4)s3)[nH]c2n1 | > 100
OC1(c2ccccc2)CSC2=Nc3ccccc3C3CCN1N23 (stereo unspecified) | 36.9

Test system: EKVX NSCLC
Assay: DTP human tumour cell line panel, 48 h

SMILES | TGI [µM]
Nc1nc(Cl)c(N)c(NCC2(CO)CC(CCCc3ccccc3)C2)n1 (stereo unspecified) | 10.1
COc1nc(N)c(N=CC(OC(C)=O)C(OC(C)=O)C(COC(C)=O)OC(C)=O)c(=O)n1C (stereo unspecified) | > 100
C#CCOCC12C=CC(O1)C1C(=O)OCC12 (stereo unspecified) | > 100
Cc1ccc2c(=O)cc(-c3ccc(-c4ccccc4)s3)[nH]c2n1 | > 81.4
OC1(c2ccccc2)CSC2=Nc3ccccc3C3CCN1N23 (stereo unspecified) | 28.6

Test system: SNB-75 CNS
Assay: DTP human tumour cell line panel, 48 h

SMILES | TGI [µM]
Nc1nc(Cl)c(N)c(NCC2(CO)CC(CCCc3ccccc3)C2)n1 (stereo unspecified) | 67.7
COc1nc(N)c(N=CC(OC(C)=O)C(OC(C)=O)C(COC(C)=O)OC(C)=O)c(=O)n1C (stereo unspecified) | > 100
C#CCOCC12C=CC(O1)C1C(=O)OCC12 (stereo unspecified) | > 100
Cc1nc(-c2ccc(N=Cc3ccc(N(CCOS(C)(=O)=O)CCOS(C)(=O)=O)cc3C)cc2)cs1 | > 100
Cc1ccc2c(=O)cc(-c3ccc(-c4ccccc4)s3)[nH]c2n1 | > 100
OC1(c2ccccc2)CSC2=Nc3ccccc3C3CCN1N23 (stereo unspecified) | 25.5

Test system: SK-MEL-2 melanoma
Assay: DTP human tumour cell line panel, 48 h

SMILES | TGI [µM]
Nc1nc(Cl)c(N)c(NCC2(CO)CC(CCCc3ccccc3)C2)n1 (stereo unspecified) | 30.6
COc1nc(N)c(N=CC(OC(C)=O)C(OC(C)=O)C(COC(C)=O)OC(C)=O)c(=O)n1C (stereo unspecified) | > 100
Cc1nc(-c2ccc(N=Cc3ccc(N(CCOS(C)(=O)=O)CCOS(C)(=O)=O)cc3C)cc2)cs1 | > 100
Cc1ccc2c(=O)cc(-c3ccc(-c4ccccc4)s3)[nH]c2n1 | > 100
OC1(c2ccccc2)CSC2=Nc3ccccc3C3CCN1N23 (stereo unspecified) | 32.1

Test system: UACC-62 melanoma
Assay: DTP human tumour cell line panel, 48 h

SMILES | TGI [µM]
Nc1nc(Cl)c(N)c(NCC2(CO)CC(CCCc3ccccc3)C2)n1 (stereo unspecified) | > 100
COc1nc(N)c(N=CC(OC(C)=O)C(OC(C)=O)C(COC(C)=O)OC(C)=O)c(=O)n1C (stereo unspecified) | > 100
C#CCOCC12C=CC(O1)C1C(=O)OCC12 (stereo unspecified) | > 100
Cc1nc(-c2ccc(N=Cc3ccc(N(CCOS(C)(=O)=O)CCOS(C)(=O)=O)cc3C)cc2)cs1 | > 100
Cc1ccc2c(=O)cc(-c3ccc(-c4ccccc4)s3)[nH]c2n1 | > 100
OC1(c2ccccc2)CSC2=Nc3ccccc3C3CCN1N23 (stereo unspecified) | 46.3

Test system: HOP-92 NSCLC
Assay: DTP human tumour cell line panel, 48 h

SMILES | TGI [µM]
Nc1nc(Cl)c(N)c(NCC2(CO)CC(CCCc3ccccc3)C2)n1 (stereo unspecified) | > 100
COc1nc(N)c(N=CC(OC(C)=O)C(OC(C)=O)C(COC(C)=O)OC(C)=O)c(=O)n1C (stereo unspecified) | > 100
Cc1ccc2c(=O)cc(-c3ccc(-c4ccccc4)s3)[nH]c2n1 | > 85.6
OC1(c2ccccc2)CSC2=Nc3ccccc3C3CCN1N23 (stereo unspecified) | 69.6

Test system: SK-MEL-28 melanoma
Assay: DTP human tumour cell line panel, 48 h

SMILES | TGI [µM]
Nc1nc(Cl)c(N)c(NCC2(CO)CC(CCCc3ccccc3)C2)n1 (stereo unspecified) | > 100
COc1nc(N)c(N=CC(OC(C)=O)C(OC(C)=O)C(COC(C)=O)OC(C)=O)c(=O)n1C (stereo unspecified) | > 100
C#CCOCC12C=CC(O1)C1C(=O)OCC12 (stereo unspecified) | > 100
Cc1nc(-c2ccc(N=Cc3ccc(N(CCOS(C)(=O)=O)CCOS(C)(=O)=O)cc3C)cc2)cs1 | > 100
Cc1ccc2c(=O)cc(-c3ccc(-c4ccccc4)s3)[nH]c2n1 | > 100
OC1(c2ccccc2)CSC2=Nc3ccccc3C3CCN1N23 (stereo unspecified) | 11.3

Test system: MALME-3M melanoma
Assay: DTP human tumour cell line panel, 48 h

SMILES | TGI [µM]
Nc1nc(Cl)c(N)c(NCC2(CO)CC(CCCc3ccccc3)C2)n1 (stereo unspecified) | 9.92
COc1nc(N)c(N=CC(OC(C)=O)C(OC(C)=O)C(COC(C)=O)OC(C)=O)c(=O)n1C (stereo unspecified) | > 100
C#CCOCC12C=CC(O1)C1C(=O)OCC12 (stereo unspecified) | > 100
Cc1nc(-c2ccc(N=Cc3ccc(N(CCOS(C)(=O)=O)CCOS(C)(=O)=O)cc3C)cc2)cs1 | > 100
Cc1ccc2c(=O)cc(-c3ccc(-c4ccccc4)s3)[nH]c2n1 | > 81.1
OC1(c2ccccc2)CSC2=Nc3ccccc3C3CCN1N23 (stereo unspecified) | 81.7

Test system: MDA-MB-435
Assay: DTP human tumour cell line panel, 48 h

SMILES | TGI [µM]
Nc1nc(Cl)c(N)c(NCC2(CO)CC(CCCc3ccccc3)C2)n1 (stereo unspecified) | > 100
COc1nc(N)c(N=CC(OC(C)=O)C(OC(C)=O)C(COC(C)=O)OC(C)=O)c(=O)n1C (stereo unspecified) | > 100
C#CCOCC12C=CC(O1)C1C(=O)OCC12 (stereo unspecified) | > 100
Cc1nc(-c2ccc(N=Cc3ccc(N(CCOS(C)(=O)=O)CCOS(C)(=O)=O)cc3C)cc2)cs1 | > 100
Cc1ccc2c(=O)cc(-c3ccc(-c4ccccc4)s3)[nH]c2n1 | > 100
OC1(c2ccccc2)CSC2=Nc3ccccc3C3CCN1N23 (stereo unspecified) | 34

Test system: NCI/ADR-RES ovarian
Assay: DTP human tumour cell line panel, 48 h

SMILES | TGI [µM]
Nc1nc(Cl)c(N)c(NCC2(CO)CC(CCCc3ccccc3)C2)n1 (stereo unspecified) | 63.1
COc1nc(N)c(N=CC(OC(C)=O)C(OC(C)=O)C(COC(C)=O)OC(C)=O)c(=O)n1C (stereo unspecified) | > 100
C#CCOCC12C=CC(O1)C1C(=O)OCC12 (stereo unspecified) | > 100
Cc1nc(-c2ccc(N=Cc3ccc(N(CCOS(C)(=O)=O)CCOS(C)(=O)=O)cc3C)cc2)cs1 | > 100
Cc1ccc2c(=O)cc(-c3ccc(-c4ccccc4)s3)[nH]c2n1 | > 100
OC1(c2ccccc2)CSC2=Nc3ccccc3C3CCN1N23 (stereo unspecified) | 63.9

Test system: HCT-116 colon
Assay: DTP human tumour cell line panel, 48 h

SMILES | TGI [µM]
Nc1nc(Cl)c(N)c(NCC2(CO)CC(CCCc3ccccc3)C2)n1 (stereo unspecified) | > 100
COc1nc(N)c(N=CC(OC(C)=O)C(OC(C)=O)C(COC(C)=O)OC(C)=O)c(=O)n1C (stereo unspecified) | > 100
C#CCOCC12C=CC(O1)C1C(=O)OCC12 (stereo unspecified) | > 100
Cc1nc(-c2ccc(N=Cc3ccc(N(CCOS(C)(=O)=O)CCOS(C)(=O)=O)cc3C)cc2)cs1 | > 100
Cc1ccc2c(=O)cc(-c3ccc(-c4ccccc4)s3)[nH]c2n1 | > 100
OC1(c2ccccc2)CSC2=Nc3ccccc3C3CCN1N23 (stereo unspecified) | 44.1

Test system: SK-MEL-5 melanoma
Assay: DTP human tumour cell line panel, 48 h

SMILES | TGI [µM]
Nc1nc(Cl)c(N)c(NCC2(CO)CC(CCCc3ccccc3)C2)n1 (stereo unspecified) | 15.4
COc1nc(N)c(N=CC(OC(C)=O)C(OC(C)=O)C(COC(C)=O)OC(C)=O)c(=O)n1C (stereo unspecified) | > 100
C#CCOCC12C=CC(O1)C1C(=O)OCC12 (stereo unspecified) | > 100
